The term IC50 denotes the concentration at which inhibition is half-maximal.

In one test the target is T1, human cardiac ion channel proteins hKir3.1/Kir3.4 (Homo sapiens, UniProt P48544+P48549).
T1 construct: expressed in transfected cells
T1 sequence (P48549 1-501): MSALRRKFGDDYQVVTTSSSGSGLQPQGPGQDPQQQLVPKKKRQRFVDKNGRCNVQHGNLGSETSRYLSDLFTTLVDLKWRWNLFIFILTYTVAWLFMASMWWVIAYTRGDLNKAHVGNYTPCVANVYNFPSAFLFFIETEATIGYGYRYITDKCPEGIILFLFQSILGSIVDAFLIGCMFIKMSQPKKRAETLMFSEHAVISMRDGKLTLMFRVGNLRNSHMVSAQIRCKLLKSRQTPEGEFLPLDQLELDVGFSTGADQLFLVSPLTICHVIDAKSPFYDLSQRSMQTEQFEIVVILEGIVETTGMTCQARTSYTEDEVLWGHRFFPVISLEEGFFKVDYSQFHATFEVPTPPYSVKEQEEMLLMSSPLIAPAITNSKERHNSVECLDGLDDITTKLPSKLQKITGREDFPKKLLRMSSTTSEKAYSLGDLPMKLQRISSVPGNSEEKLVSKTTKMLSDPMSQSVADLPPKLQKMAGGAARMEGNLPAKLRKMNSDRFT
T1 sequence (P48544 1-419): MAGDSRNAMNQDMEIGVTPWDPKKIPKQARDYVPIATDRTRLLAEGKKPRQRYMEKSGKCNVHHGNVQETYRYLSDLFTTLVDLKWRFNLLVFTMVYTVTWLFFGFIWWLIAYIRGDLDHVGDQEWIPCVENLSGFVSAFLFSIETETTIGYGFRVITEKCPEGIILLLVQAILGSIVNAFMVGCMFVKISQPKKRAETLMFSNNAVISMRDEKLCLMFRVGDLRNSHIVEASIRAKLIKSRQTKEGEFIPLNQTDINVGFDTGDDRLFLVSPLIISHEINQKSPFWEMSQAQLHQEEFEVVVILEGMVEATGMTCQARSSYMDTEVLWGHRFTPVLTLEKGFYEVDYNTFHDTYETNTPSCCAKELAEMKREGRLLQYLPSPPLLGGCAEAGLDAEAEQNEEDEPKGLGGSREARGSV
Put plainly: Atomic Absorption Screening (AAS) Rb efflux assay of hKir3.1/Kir3.4 block, carbachol/high K+ stimulated, 10-pt or 7-pt CR. In kind it is cell-based. To be noted: 7-pt CR (0.037 to 27 μmol/L), AAS Rb efflux, CHO-K1 cells expressing hKir3.1/Kir3.4; mean of >3 replicates; read-out: IKACh IC50 7-pt CR, AAS. An outline of the steps:
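Mean IC50s derive from >4 replicates over 0.003–67 μmol/L (10-point) or >3 replicates over 0.037–27 μmol/L (7-point), both threefold steps. Rb-loaded (3 h, 37° C) CHO-K1 cells stably expressing hKir3.1/Kir3.4 saw compound for 5 min at RT before 10-min channel opening by carbachol 10 μM/KCl 20 mM final. Released Rb was quantified by atomic absorption.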
As to `CC(C)[C@@H](CN1CCCC1)N(C)C(=O)c1ccccc1OC(F)F` [Example 16.54, (S)-2-(Difluoromethoxy)-N-methyl-N-(3-methyl-1-(pyrrolidin-1-yl)butan-2-yl)benzamide], the 50% inhibitory concentration (IC50) was 6 µM. In the case of `CC(C)[C@@H](CN1CCCC1)N(C)C(=O)c1cccc(OC(F)(F)F)c1` [Example 16.16, (S)—N-Methyl-N-(3-methyl-1-(pyrrolidin-1-yl)butan-2-yl)-3-(tri-fluoromethoxy)benzamide], the IC50 was 2.6 µM. The same measure, in the same setting: with `CC(C)[C@@H](CN1CCCCC1)N(C)C(=O)c1ccc(Br)cc1` [Example 16.27, 4-Bromo-N-methyl-N-[(1S)-2-methyl-1-(piperidin-1-ylmethyl)propyl]benzamide] the figure was 4 µM; with `CC(C)[C@@H](CN1CCCCC1)N(C)C(=O)c1cccc(Br)c1` [Example 16.35, (S)-3-Bromo-N-methyl-N-(3-methyl-1-(piperidin-1-yl)butan-2-yl)benzamide], 12 µM.

The test is the same for the next values; noted with them: 10-pt CR (0.003 to 67 μmol/L), AAS Rb efflux, CHO-K1 cells expressing hKir3.1/Kir3.4; mean of >4 replicates; read-out: IKACh IC50 10-pt CR, AAS.
For the compound `CC(C)[C@@H](CN1CCCC1)N(C)C(=O)c1ccccc1OC(F)F` [Example 16.54, (S)-2-(Difluoromethoxy)-N-methyl-N-(3-methyl-1-(pyrrolidin-1-yl)butan-2-yl)benzamide], the IC50 is 9.1 µM. In the case of `Cc1cc(C(=O)N(C)[C@H](CN2CCC(O)CC2)C(C)C)ccc1F` [Example 24, (S)-4-Fluoro-N-(1-(4-hydroxypiperidin-1-yl)-3-methylbutan-2-yl)-N,3-dimethylbenzamide], the half-maximal inhibitory concentration (IC50) worked out at 4 µM.

Consider `CN(C(=O)c1ccc(F)cc1)[C@@H](CN1CC(O)C1)C1CCC1` [Example 35.5, N-[(1R)-1-Cyclobutyl-2-(3-hydroxyazetidin-1-yl)ethyl]-4-fluoro-N-methylbenzamide], for which the IC50 came out at 11 µM. As to `CCC[C@@H](CN1CC(O)C1)N(C(=O)c1ccc(F)c(F)c1)C(C)C` [Example 34.2, 3,4-Difluoro-N-[(2S)-1-(3-hydroxyazetidin-1-yl)pentan-2-yl]-N-(propan-2-yl)benzamide], the 50% inhibitory concentration (IC50) was 11 µM.

Turning to `COc1ccc(C(=O)N(C)[C@H](CN2CC(O)C2)C2CCC2)cc1F` [Example 39.6, (S)—N-(1-Cyclobutyl-2-(3-hydroxyazetidin-1-yl)ethyl)-3-fluoro-4-methoxy-N-methylbenzamide], the half-inhibitory concentration (IC50) is 0.48 µM.

With `CC(C)[C@@H](CN1CCCC(F)(F)C1)N(C)C(=O)c1ccc(F)c(C(F)(F)F)c1` [Example 16.2, (S)—N-(1-(3,3-Difluoropiperidin-1-yl)-3-methylbutan-2-yl)-4-fluoro-N-methyl-3-(trifluoromethyl)benzamide], the concentration for half-maximal inhibition (IC50) came out at 15 µM. Take `CN(C(=O)c1ccc(F)cc1)[C@H](CN1CC(O)C1)C1CC1` [Example 7.4, (S)-N-(1-Cyclopropyl-2-(3-hydroxyazetidin-1-yl)ethyl)-4-fluoro-N-methylbenzamide]: the concentration for half-maximal inhibition (IC50) is 9.8 µM. As to `CC(C)[C@@H](CN1CCC1)N(C)C(=O)c1ccccc1` [Example 1.14, (S)-N-(1-(Azetidin-1-yl)-3-methylbutan-2-yl)-N-methylbenzamide], the IC50 is 6.6 µM.

As for `CCC[C@@H](CN1C[C@H](O)[C@H]1C)N(C)C(=O)c1ccc(F)cc1` (relative stereo) [Example 43.2, 4-Fluoro-N—((S)-1-((2R*,3S*)-3-hydroxy-2-methylazetidin-1-yl)pentan-2-yl)-N-methylbenzamide], the concentration for half-maximal inhibition (IC50) stood at 9.1 µM.

`CN(C(=O)c1ccccc1)[C@H](CN1CC(O)C1)C1CCC1` [Example 39.7, (S)—N-(1-Cyclobutyl-2-(3-hydroxyazetidin-1-yl)ethyl)-N-methylbenzamide]: the IC50 was 1.4 µM. As to `Cc1cccc(C(=O)N(C)[C@H](CN2CCCC2)C2CC2)c1` [Example 3.17, (S)-N-(1-Cyclopropyl-2-(pyrrolidin-1-yl)ethyl)-N,3-dimethyl-benzamide], the IC50 came to 9.3 µM. Regarding `CCCC[C@@H](CN1CC(O)C1)N(C)C(=O)c1cc(F)ccc1F` [Example 33.9, 2,5-Difluoro-N-[(2S)-1-(3-hydroxyazetidin-1-yl)hexan-2-yl]-N-methylbenzamide], the half-inhibitory concentration (IC50) turned out to be 4.3 µM.

Turning to `CCC[C@@H](CN1CC(O)C1)N(C)C(=O)c1ccc(F)c(C(F)(F)F)c1` [Example 8.5, (S)-4-Fluoro-N-(1-(3-hydroxyazetidin-1-yl)pentan-2-yl)-N-methyl-3-(trifluoromethyl)benzamide], the IC50 is 0.58 µM. `COC[C@@H]1CCCN1C[C@H](C(C)C)N(C)C(=O)c1ccc(Br)cc1` [Example 3.20, 4-Bromo-N-((S)-1-((S)-2-(methoxymethyl)pyrrolidin-1-yl)-3-methylbutan-2-yl)-N-methylbenzamide]: the IC50 turned out to be 8.4 µM. For `CN(C(=O)c1ccc(F)cc1F)[C@@H](CN1CC(O)C1)C1CCC1` [Example 35.10, N-[(1R)-1-Cyclobutyl-2-(3-hydroxyazetidin-1-yl)ethyl]-2,4-difluoro-N-methylbenzamide], the IC50 amounted to 15 µM. On to `C[C@@H](CN1CC(O)C1)N(C)C(=O)c1ccc(Br)cc1` [Example 41, (S)-4-Bromo-N-(1-(3-hydroxyazetidin-1-yl)propan-2-yl)-N-methylbenzamide], for which the 50% inhibitory concentration (IC50) was 7.3 µM.

Take `CCC[C@@H](CN1CC(OCC#N)C1)N(C)C(=O)c1ccc(Cl)cc1` [Example 31.3, 4-chloro-N-{(2S)-1-[3-(cyanomethoxy)azetidin-1-yl]pentan-2-yl}-N-methylbenzamide]: the IC50 stood at 1.7 µM.

`CCC[C@@H](CN1CC(O)C1)N(C)C(=O)c1ccc(F)c(Cl)c1` [Example 8.3, (S)-3-Chloro-4-fluoro-N-(1-(3-hydroxyazetidin-1-yl)pentan-2-yl)-N-methylbenzamide]: the IC50 stood at 0.8 µM. Turning to `CN(C(=O)c1cccc(C(F)F)c1)[C@H](CN1CC(O)C1)C1CCC1` [Example 39.15, (S)—N-(1-Cyclobutyl-2-(3-hydroxyazetidin-1-yl)ethyl)-3-(difluoromethyl)-N-methylbenzamide], the IC50 was determined as 0.25 µM.

Still in this test, the particulars now being: printed as IC50 >67 μM in the 10-pt CR assay or IC50 >27 μM in the 7-pt CR assay; assay format per compound not stated; read-out: IC50.
As to `CC(C)[C@@H](CCN1CCCC1)N(C)C(=O)c1ccccc1` [N-Methyl-N-[(1R)-2-methyl-1-(2-pyrrolidin-1-ylethyl)propyl]benzamide], the IC50 was > 27 µM.

In the case of `CC(C)[C@@H](CN1CCC1)N(C)C(=O)c1ccc(C#N)cc1` [(S)-N-(1-(Azetidin-1-yl)-3-methylbutan-2-yl)-4-cyano-N-methylbenzamide], the IC50 was > 27 µM. For `CC(C)[C@@H](CN1CC(F)C1)N(C)C(=O)c1ccc(C#N)cc1F` [(S)-4-Cyano-2-fluoro-N-(1-(3-fluoroazetidin-1-yl)-3-methylbutan-2-yl)-N-methylbenzamide], the IC50 was > 27 µM. Still for that read-out and setting: with `Cc1cc(C(=O)N(C)[C@H](CN2C[C@@H](O)[C@H](O)C2)C(C)C)ccc1F` [N-((S)-1-((3R,4R)-3,4-Dihydroxypyrrolidin-1-yl)-3-methylbutan-2-yl)-4-fluoro-N,3-dimethylbenzamide] the figure was > 27 µM; with `COc1cccc(C(=O)N(C)[C@H](CN2CCCC(F)(F)C2)C(C)C)c1` [N-[(1S)-1-[(3,3-Difluoro-1-piperidyl)methyl]-2-methyl-propyl]-3-methoxy-N-methyl-benzamide], > 27 µM. On to `CC(C)[C@@H](CN1CC(O)C1)N(C)C(=O)c1ccc(F)c(CO)c1` [4-Fluoro-N-[(1S)-1-[(3-hydroxyazetidin-1-yl)methyl]-2-methyl-propyl]-3-(hydroxymethyl)-N-methyl-benzamide], for which the half-maximal inhibitory concentration (IC50) was > 27 µM. In the case of `CC(C)[C@@H](CN1CCC(F)(F)C1)N(C)C(=O)c1ccc(Cl)cc1` [(S)-4-Chloro-N-(1-(3,3-difluoropyrrolidin-1-yl)-3-methylbutan-2-yl)-N-methylbenzamide], the IC50 was > 27 µM.

(Values after US8361998B2, “Compounds and their use as IKACh blockers” (AstraZeneca AB, priority 2010, dated 2013).)
